# From paper PMC4752462 (PLoS ONE, 2016)
# What was measured:
# [1] = test system: CYP3A; design: method as in PMID 21348537; settings: read-out: IC50 for CYP3A inhibition; cited from earlier work
# [2] = Sample stability of EVG in the microsomal matrix (bench-top, freeze-thaw, long-term storage); assay type: physicochemical
# Procedure: Accuracy and precision of the method were determined by analyzing QC samples that cover the calibration curve range of the analyte. The low QC concentration was selected to be three times the LLOQ as per the FDA guidelines. Inter-day precision and accuracy were calculated by analyzing extracted calibration standards and three QCs at different concentrations as described in our previous publications. […] Carry-over (memory) effect was determined by assessing the extracted blank immediately after the upper limit of quantification (ULOQ, 1000 ng/ml). Matrix effect (ME), recovery efficiency (RE), and process efficiency (PE) were explored by following a previously proposed methodology. The three sets of samples used for the experiments were as follows: A, pure standard solutions of EVG; B, blank microsomal extraction spiked with pure standard solutions of EVG; C, microsomal samples spiked with pure standard solutions of EVG and extracted at the low, medium, and high QC concentrations. After quantitation of the analyte the parameters were calculated using the following formulae. ME (%) = B/A x 100, RE (%) = C/B x 100, PE (%) = C/A x 100. Furthermore, analyte peak areas were corrected with their respective IS peak areas and reported. Finally, sample stability studies for the EVG in the microsomal matrix was tested using low, medium, and high QCs at the bench-top (25°C) and storage conditions (-80°C). Analyte concentrations in these samples were measured after fresh preparation and at 12, 24, and 48 hours. […] For the long-term storage, samples were analyzed after storing them at the -80°C for three months. All determined concentrations were compared with freshly prepared QCs and reported the variation as a percentage of change from the freshly made QCs. The incurred sample reanalysis was also done by randomly selecting 10% of the total samples analyzed. The obtained data was compared with the first time results of the samples to determine whether the variability is beyond ± 20%.
# [3] = test system: CYP3A4; settings: based on the EVG metabolic activity; cited from earlier work
smiles,measurement,setting,value
"COc1cc2c(cc1Cc1cccc(Cl)c1F)c(=O)c(C(=O)O)cn2[C@H](CO)C(C)C [EVG, Elvitegravir]",IC50,[1],63 µM
same,long term storage stability,"[2]; -80°C, 3-4 months, data not shown",did not exhibit significant loss in the concentration
same,change from freshly prepared quality controls,"[2]; Freeze thaw (-80°C), cycle 1, High QC 3.50 μM",-3%
same,change from freshly prepared quality controls,"[2]; Freeze thaw (-80°C), cycle 1, Low QC 0.040 μM",-12%
same,change from freshly prepared quality controls,"[2]; Freeze thaw (-80°C), cycle 1, Medium QC 0.75 μM",5%
same,change from freshly prepared quality controls,"[2]; Freeze thaw (-80°C), cycle 2, High QC 3.50 μM",3%
same,change from freshly prepared quality controls,"[2]; Freeze thaw (-80°C), cycle 2, Low QC 0.040 μM",-7%
same,change from freshly prepared quality controls,"[2]; Freeze thaw (-80°C), cycle 2, Medium QC 0.75 μM",3%
same,change from freshly prepared quality controls,"[2]; Freeze thaw (-80°C), cycle 3, High QC 3.50 μM",-15%
same,change from freshly prepared quality controls,"[2]; Freeze thaw (-80°C), cycle 3, Low QC 0.040 μM",-3%
same,change from freshly prepared quality controls,"[2]; Freeze thaw (-80°C), cycle 3, Medium QC 0.75 μM",5%
same,change from freshly prepared quality controls,"[2]; Room Temp (25°C), 0 hours, High QC 3.50 μM",0%
same,change from freshly prepared quality controls,"[2]; Room Temp (25°C), 0 hours, Low QC 0.040 μM",0%
same,change from freshly prepared quality controls,"[2]; Room Temp (25°C), 0 hours, Medium QC 0.75 μM",0%
same,change from freshly prepared quality controls,"[2]; Room Temp (25°C), 12 hours, High QC 3.50 μM",0.1%
same,change from freshly prepared quality controls,"[2]; Room Temp (25°C), 12 hours, Low QC 0.040 μM",-14%
same,change from freshly prepared quality controls,"[2]; Room Temp (25°C), 12 hours, Medium QC 0.75 μM",9%
same,change from freshly prepared quality controls,"[2]; Room Temp (25°C), 24 hours, High QC 3.50 μM",1.8%
same,change from freshly prepared quality controls,"[2]; Room Temp (25°C), 24 hours, Low QC 0.040 μM",-10%
same,change from freshly prepared quality controls,"[2]; Room Temp (25°C), 24 hours, Medium QC 0.75 μM",4%
same,change from freshly prepared quality controls,"[2]; Room Temp (25°C), 48 hours, High QC 3.50 μM",-0.4%
same,change from freshly prepared quality controls,"[2]; Room Temp (25°C), 48 hours, Low QC 0.040 μM",-5%
same,change from freshly prepared quality controls,"[2]; Room Temp (25°C), 48 hours, Medium QC 0.75 μM",7%
same,stability at room temperature,"[2]; microsomal matrix, over 48 hours",considered stable
same,percentage of variation in the freeze-thaw stability studies,[2]; up to 3-4 freeze-thaw cycles,less than 15%
same,Km,[3],21.5 µM
